Experiments:
Format in all cases: cell-based, Staphylococcus aureus
MRSA-575 = test: paper diffusion drug sensitivity test, MRSA-575; conditions: for Zone of inhibition: MRSA-575, drug sensitive paper 30 μg/tablet, LB plate, 37° C., 24 h; for inhibitory effect (in words): multi-drug resistant Staphylococcus aureus 575, summary of FIGS. 1-3 and Table 1
Procedure: (§1) The antimicrobial efficacy was determined by a paper diffusion drug sensitivity test.
(§2) Experimental strains: multi-resistant Staphylococcus aureus 206, multi-resistant Staphylococcus aureus 575, multi-resistant Staphylococcus aureus 596. The experimental strains were provided by Huashan Hospital Affiliated to Fudan University (Institute of Antibiotic of Fudan University).
(§3) Drug sensitive paper: The drug sensitive paper was a special drug sensitive paper with a diameter of 6.35 mm and a water absorption of 0.02 mL. The control drug was vancomycin (30 μg/tablet); the test drugs were pleuromulin (30 μg/tablet), ursodeoxycholic acid (30 μg/tablet) and pleuromulin ursodeoxycholic acid ester (30 μg/tablet).
(§4) The experimental strains were inoculated in non-selective medium and placed in air at 37° C. for 24 h. Pick a single colony that grows well and inoculate it into broth medium, incubate at 35° C.±2° C. for 6 hours, and use LA broth medium to calibrate the concentration of the bacterial solution to 0.5 Mie turbidimetric tube (1.5×10^8 CFU/mL). A bacterial suspension is obtained.
(§5) Weigh the LB dry powder, sterilize at 103.4 Kpa, 121.3° C. high-pressure steam for 15 min, and then put it in a 40° C.-50° C. water bath. Place a sterile empty plate (inner diameter 9 cm) on the surface of the ultra-clean table water table, shake and shake LB, and then pour the plate. The thickness of each plate is 3 mm to 4 mm. After the plate is cooled at room temperature, store it in the refrigerator at 2° C.-8° C. Use a sterile cotton swab to dip the bacterial solution, and evenly coat the surface of the LB plate 3 times. After inoculation of the bacterial suspension, the LB plate was dried at room temperature for 3 min to 5 min. Use sterile forceps to closely attach the antibacterial drug paper to the dish. Put the dish upside down and place it in a 37° C. incubator for 24 h. Observe the result and measure the diameter. Taking 0.5% DMSO solution as a negative control, the antibacterial activity is expressed by the diameter of the inhibition zone. The inhibition zone ≥17 mm, sensitive; the inhibition zone is 15 mm˜16 mm, intermediary; the inhibition zone ≤14 mm, drug resistance.

MRSA-171 = test: paper diffusion drug sensitivity test, MRSA-171; conditions: for Zone of inhibition: MRSA-171, drug sensitive paper 30 μg/tablet, LB plate, 37° C., 24 h; for inhibitory effect (in words): multi-drug resistant Staphylococcus aureus 171, summary of FIGS. 1-3 and Table 1
Procedure: [Worded in the source for another organism; this organism is reported under the same test.] as §1, §2, §3, §4, §5

MRSA-596 = test: paper diffusion drug sensitivity test, MRSA-596; conditions: for Zone of inhibition: MRSA-596, drug sensitive paper 30 μg/tablet, LB plate, 37° C., 24 h; for inhibitory effect (in words): multi-drug resistant Staphylococcus aureus 596, summary of FIGS. 1-3 and Table 1
Procedure: as §1, §2, §3, §4, §5

For `C=C[C@]1(C)C[C@@H](OC(=O)COC(=O)CC[C@@H](C)[C@H]2CCC3[C@@H]4[C@@H](O)C[C@@H]5C[C@H](O)CC[C@]5(C)[C@H]4CC[C@@]32C)[C@]2(C)CC[C@@H](C)[C@@]3(CCC(=O)[C@@H]23)[C@@H](C)[C@@H]1O` (stereo partly drawn) [Pleuromulin ursodeoxycholic acid ester, (4R)-2-(((3aS,4R,5S,6S,8R,9R,9aR,12R)-5-hydroxy-4,6,9,12-tetramethyl-1-oxo-6-vinyldecahydro-3a,9-propanocyclopenta[8]annulen-8-yl)oxy)-2-oxoethyl 4-((3R,5 S,7 S, 8R,9 S, 10 S,13R,17R)-3,7-dihydroxy-10,13-dimethylhexadecahydro-1H-cyclopenta[a]phenanthren-17-yl)pentanoate], the Zone of inhibition (MRSA-575) was 13 mm, the Zone of inhibition (MRSA-575; listed as pleuromutilin ursodeoxycholic acid ester) was “up to 13 mm” and the “inhibitory effect (in words)” value (MRSA-575) was “strong inhibitory effects”. The Zone of inhibition (MRSA-171) was 11 mm, the “inhibitory effect (in words)” value (MRSA-171) was “strong inhibitory effects” and the Zone of inhibition (MRSA-596) was 12 mm. The “inhibitory effect (in words)” value (MRSA-596) was “strong inhibitory effects”.
`C=C[C@]1(C)C[C@@H](OC(=O)CO)[C@]2(C)[C@H](C)CC[C@]3(CCC(=O)[C@H]32)[C@@H](C)[C@@H]1O` [Pleuromulin] was tested, and the Zone of inhibition (MRSA-575) was 0 mm, the “inhibitory effect (in words)” value (MRSA-575) was “no inhibitory effect” and the Zone of inhibition (MRSA-171) was 0 mm. The “inhibitory effect (in words)” value (MRSA-171) was “no inhibitory effect”, the Zone of inhibition (MRSA-596) was 0 mm and the “inhibitory effect (in words)” value (MRSA-596) was “no inhibitory effect”.
`C[C@H](CCC(=O)O)[C@H]1CC[C@H]2[C@@H]3[C@@H](O)C[C@@H]4C[C@H](O)CC[C@]4(C)[C@H]3CC[C@]12C` [Ursodeoxycholic acid] was tested, and the Zone of inhibition (MRSA-575) was 0 mm, the “inhibitory effect (in words)” value (MRSA-575) was “no inhibitory effect” and the Zone of inhibition (MRSA-171) was 0 mm. The “inhibitory effect (in words)” value (MRSA-171) was “no inhibitory effect”, the Zone of inhibition (MRSA-596) was 0 mm and the “inhibitory effect (in words)” value (MRSA-596) was “no inhibitory effect”.
`CN[C@H](CC(C)C)C(=O)N[C@H]1C(=O)N[C@@H](CC(N)=O)C(=O)N[C@H]2C(=O)N[C@H]3C(=O)N[C@H](C(=O)N[C@H](C(=O)O)c4cc(O)cc(O)c4-c4cc3ccc4O)[C@H](O)c3ccc(c(Cl)c3)Oc3cc2cc(c3O[C@@H]2O[C@H](CO)[C@@H](O)[C@H](O)[C@H]2O[C@H]2C[C@](C)(N)[C@H](O)[C@H](C)O2)Oc2ccc(cc2Cl)[C@H]1O` [Vancomycin] gave a Zone of inhibition (MRSA-575) of 17 mm, a Zone of inhibition (MRSA-171) of 17 mm and a Zone of inhibition (MRSA-596) of 23 mm.
